Data reported in patent publication US20240254547A1, “HIGHLY ACCURATE […]” (KAO CORPORATION, priority 2018, published 2024).

Test system: genomic DNA from the bone marrow of TG mouse
Experiment: Mutation analysis of mouse bone marrow genomic DNA by sequencing with information on complementary strands
Format: in vivo, mouse (C57BL/6JJmsSlc-Tg (gpt delta))
Conditions: ENU 150 mg/kg/day intraperitoneally for 5 days, n=2
Procedure: Male TG mice which were 7 to 9 weeks old at initiation of administration were used. ENU (produced by Toronto Research Chemicals, Inc.) was dissolved in saline to a concentration of 15.0 mg/mL. By using a plastic syringe and a 25 G injection needle, […] was intraperitoneally administered to the mice once per day (ENU 150 mg/kg/day) for 5 days (ENU group). Saline was administered to a control group. Seven days after the final administration, the animals were each euthanized to resect the femur, and genomic DNA was extracted from the bone marrow by using a REcoverEase DNA Isolation Kit (produced by Agilent Technologies) in accordance with the recommended protocol. The double-stranded DNA concentration of the resulting DNA was measured by using a Qubit3.0 Fluorometer (produced by Thermo Fisher Scientific) with a Qubit™ dsDNA BR Assay Kit attached thereto. […]
Each of the libraries prepared in 3) was subjected to sequencing by using a HiSeq 2500 (produced by Illumina, Inc.), where the read length was set to 2*100 bp. […]
Edit of raw read sequences acquired through sequencing, extraction of information on complementary strands, and mutation analysis were performed by using the procedure of 5) in Example 2 in accordance with the analysis flow illustrated above in Schematic Diagrams 3 and 4. […]

CCN(N=O)C(N)=O [ENU, ethylnitrosourea]
Frequencies of A:T>T:A, A:T>G:C, and G:C>A:T versus control group: significantly higher
